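Tested at 5 concentrations; 48 h exposure; 96-well plates; endpoints linearly interpolated, else capped at highest concentration. The concentration for 50% growth inhibition is given as GI50.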 Calls of active or inactive are those of the source. Cut-off read from the data, not from the text of the source: active = GI50 up to about 1.1 µM and inactive = higher.
Legend:
Assay in all cases: DTP human tumour cell line panel, 48 h
786-0 = test system: 786-0
A498 = test system: A498
A549 = test system: A549
ACHN = test system: ACHN
BT-549 = test system: BT-549
CAKI-1 = test system: CAKI-1
CCRF-CEM = test system: CCRF-CEM
COLO 205 = test system: COLO 205
DU-145 = test system: DU-145
EKVX = test system: EKVX
HCC 2998 = test system: HCC 2998
HCT-116 = test system: HCT-116
HCT-15 = test system: HCT-15
HL-60 = test system: HL-60
HOP-62 = test system: HOP-62
HOP-92 = test system: HOP-92
HT-29 = test system: HT-29
Hs-578T = test system: Hs-578T
IGROV-1 = test system: IGROV-1
K562 = test system: K562
KM12 = test system: KM12
LOX IMVI = test system: LOX IMVI
M14 = test system: M14
MCF7 = test system: MCF7
MDA-MB-231 = test system: MDA-MB-231
MDA-MB-435 = test system: MDA-MB-435
MDA-N = test system: MDA-N
MOLT-4 = test system: MOLT-4
Malme-3M = test system: Malme-3M
NCI-H226 = test system: NCI-H226
NCI-H23 = test system: NCI-H23
NCI-H522 = test system: NCI-H522
NCI/ADR-RES = test system: NCI/ADR-RES
OVCAR-3 = test system: OVCAR-3
OVCAR-4 = test system: OVCAR-4
OVCAR-5 = test system: OVCAR-5
OVCAR-8 = test system: OVCAR-8
PC-3 = test system: PC-3
RPMI-8226 = test system: RPMI-8226
RXF 393 = test system: RXF 393
SF-268 = test system: SF-268
SF-295 = test system: SF-295
SF-539 = test system: SF-539
SK-MEL-28 = test system: SK-MEL-28
SK-MEL-2 = test system: SK-MEL-2
SK-MEL-5 = test system: SK-MEL-5
SK-OV-3 = test system: SK-OV-3
SN12C = test system: SN12C
SNB-19 = test system: SNB-19
SNB-75 = test system: SNB-75
SR = test system: SR
SW-620 = test system: SW-620
T47D = test system: T47D
TK-10 = test system: TK-10
U-251 = test system: U-251
UACC-257 = test system: UACC-257
UACC-62 = test system: UACC-62
UO-31 = test system: UO-31
NCI-H460 = test system: NCI-H460

Compound: C=C1C2CC[C@@](C)(O)C2[C@H]2OC(=O)C(=C)[C@@H]2C[C@H]1O (stereo partly specified)
- GI50 (786-0): 16.1 µM (inactive)
- GI50 (A498): 41 µM (inactive)
- GI50 (A549): 29.3 µM (inactive)
- GI50 (ACHN): 10.8 µM (inactive)
- GI50 (BT-549): 10.3 µM (inactive)
- GI50 (CAKI-1): 12.1 µM (inactive)
- GI50 (CCRF-CEM): 2.56 µM (inactive)
- GI50 (COLO 205): 15 µM (inactive)
- GI50 (DU-145): 15.5 µM (inactive)
- GI50 (EKVX): 29 µM (inactive)
- GI50 (HCC 2998): 19.1 µM (inactive)
- GI50 (HCT-116): 27 µM (inactive)
- GI50 (HCT-15): 16.7 µM
- GI50 (HL-60): 37.2 µM (inactive)
- GI50 (HOP-62): 30.7 µM (inactive)
- GI50 (HOP-92): 27.5 µM (inactive)
- GI50 (HT-29): 16.1 µM (inactive)
- GI50 (Hs-578T): 23.4 µM (inactive)
- GI50 (IGROV-1): 28.4 µM (inactive)
- GI50 (K562): 28.6 µM (inactive)
- GI50 (KM12): 19.7 µM (inactive)
- GI50 (LOX IMVI): 15 µM (inactive)
- GI50 (M14): 13.8 µM (inactive)
- GI50 (MCF7): 14.2 µM (inactive)
- GI50 (MDA-MB-231): 18.8 µM (inactive)
- GI50 (MDA-MB-435): 26 µM (inactive)
- GI50 (MDA-N): 24.5 µM (inactive)
- GI50 (MOLT-4): 14.7 µM (inactive)
- GI50 (Malme-3M): 15.2 µM (inactive)
- GI50 (NCI-H226): 18 µM (inactive)
- GI50 (NCI-H23): 17.7 µM (inactive)
- GI50 (NCI-H522): 14.7 µM (inactive)
- GI50 (NCI/ADR-RES): 18.8 µM (inactive)
- GI50 (OVCAR-3): 20.4 µM (inactive)
- GI50 (OVCAR-4): 14.9 µM (inactive)
- GI50 (OVCAR-5): 29 µM (inactive)
- GI50 (OVCAR-8): 22.3 µM (inactive)
- GI50 (PC-3): 34.4 µM (inactive)
- GI50 (RPMI-8226): 13.1 µM (inactive)
- GI50 (RXF 393): 22.1 µM (inactive)
- GI50 (SF-268): 49.2 µM (inactive)
- GI50 (SF-295): 54.6 µM (inactive)
- GI50 (SF-539): 14.2 µM (inactive)
- GI50 (SK-MEL-28): 26 µM (inactive)
- GI50 (SK-MEL-2): 20.9 µM (inactive)
- GI50 (SK-MEL-5): 8.38 µM (inactive)
- GI50 (SK-OV-3): 29.1 µM (inactive)
- GI50 (SN12C): 18.5 µM (inactive)
- GI50 (SNB-19): 48.6 µM (inactive)
- GI50 (SNB-75): 43.4 µM (inactive)
- GI50 (SR): 17.1 µM (inactive)
- GI50 (SW-620): 29.7 µM (inactive)
- GI50 (T47D): 17.8 µM (inactive)
- GI50 (TK-10): 14.9 µM (inactive)
- GI50 (U-251): 31.9 µM (inactive)
- GI50 (UACC-257): 16.3 µM (inactive)
- GI50 (UACC-62): 16 µM (inactive)
- GI50 (UO-31): 13.6 µM (inactive)

Compound: COc1nc(N)c(N=O)c(OCc2ccccc2)n1
- GI50 (786-0): 5.21 µM (inactive)
- GI50 (A498): > 10 µM (inactive)
- GI50 (A549): > 10 µM (inactive)
- GI50 (ACHN): 7.35 µM (inactive)
- GI50 (BT-549): 4.01 µM (inactive)
- GI50 (CAKI-1): 3.51 µM (inactive)
- GI50 (CCRF-CEM): 2.31 µM (inactive)
- GI50 (COLO 205): 1.09 µM (active)
- GI50 (DU-145): > 10 µM (inactive)
- GI50 (EKVX): 2.64 µM (inactive)
- GI50 (HCC 2998): > 10 µM (inactive)
- GI50 (HCT-116): 9.71 µM (inactive)
- GI50 (HCT-15): 2.5 µM
- GI50 (HL-60): 4.84 µM (inactive)
- GI50 (HOP-62): > 10 µM (inactive)
- GI50 (HOP-92): > 10 µM (inactive)
- GI50 (HT-29): 3.38 µM (inactive)
- GI50 (Hs-578T): > 10 µM (inactive)
- GI50 (IGROV-1): > 10 µM (inactive)
- GI50 (K562): > 10 µM (inactive)
- GI50 (KM12): > 10 µM (inactive)
- GI50 (LOX IMVI): 4.19 µM (inactive)
- GI50 (M14): 4.84 µM (inactive)
- GI50 (MCF7): 5.04 µM (inactive)
- GI50 (MDA-MB-231): 3.32 µM (inactive)
- GI50 (MDA-MB-435): 6.31 µM (inactive)
- GI50 (MDA-N): 5.36 µM (inactive)
- GI50 (MOLT-4): 8.39 µM (inactive)
- GI50 (Malme-3M): 3.12 µM (inactive)
- GI50 (NCI-H226): > 10 µM (inactive)
- GI50 (NCI-H23): > 10 µM (inactive)
- GI50 (NCI-H460): 9.29 µM (inactive)
- GI50 (NCI-H522): 1.71 µM (inactive)
- GI50 (NCI/ADR-RES): 6.55 µM (inactive)
- GI50 (OVCAR-3): 4.01 µM (inactive)
- GI50 (OVCAR-4): 3.61 µM (inactive)
- GI50 (OVCAR-5): > 10 µM (inactive)
- GI50 (OVCAR-8): 3.52 µM (inactive)
- GI50 (PC-3): > 10 µM (inactive)
- GI50 (RPMI-8226): > 10 µM (inactive)
- GI50 (RXF 393): 5.15 µM (inactive)
- GI50 (SF-268): > 10 µM (inactive)
- GI50 (SF-295): > 10 µM (inactive)
- GI50 (SF-539): 3.3 µM (inactive)
- GI50 (SK-MEL-28): > 10 µM (inactive)
- GI50 (SK-MEL-2): > 10 µM (inactive)
- GI50 (SK-MEL-5): 7.89 µM (inactive)
- GI50 (SK-OV-3): > 10 µM (inactive)
- GI50 (SN12C): 7.59 µM (inactive)
- GI50 (SNB-19): > 10 µM (inactive)
- GI50 (SNB-75): > 10 µM (inactive)
- GI50 (SR): 4.84 µM (inactive)
- GI50 (SW-620): 1.61 µM (inactive)
- GI50 (T47D): 2.76 µM (inactive)
- GI50 (TK-10): > 10 µM (inactive)
- GI50 (U-251): > 10 µM (inactive)
- GI50 (UACC-257): > 10 µM (inactive)
- GI50 (UACC-62): 5.89 µM (inactive)

— ChEMBL document CHEMBL1201862, “PubChem BioAssay data set” (2004)
